Data set [1] relates to patients with advanced solid tumors. Conditions: oral.
Data set [2] in a line: Pharmacokinetic assessments in patient plasma. It counts as in vivo, human.
A further data set deals with solid tumors. The conditions noted are these: cited from earlier work.
Data set [3] concerns S6 ribosomal protein phosphorylation (Ser235/236) in PBMCs. Briefly: PBMC phospho/total S6RP analysis. Format: in vivo, human. Conditions: PBMCs of patients, baseline to 1 month of treatment (with vatalanib).
[4] abbreviates: vatalanib after everolimus started, day 29, mean ± SD.
Where [5] appears, read: vatalanib alone, day 14, mean ± SD.
[6] abbreviates: everolimus with vatalanib, day 29, mean ± SD.

Marks after values point to notes of the source that are not given here. A value given as a limit tells only on which side of the number the result lay.

In the case of `Clc1ccc(Nc2nnc(Cc3ccncc3)c3ccccc23)cc1` [Vatalanib], the “Maximum tolerated dose (MTD) of vatalanib in the combination” value in data set [1] (combined with everolimus 5 mg daily) turned out to be 1000 mg daily. Besides, the “Effect of adding everolimus on systemic exposure of vatalanib (AUC)” value in data set [2] (day 14 vs day 29) is “not significantly affected”. The “Effect of everolimus on the PK parameters of vatalanib (maximum or steady-state plasma concentrations)” value in data set [2] (day 14 vs day 29) is reported as “no substantial effect”. The compound further displayed a Vd/F in data set [2] (human, plasma, oral) of 488 ± 481 L. Further, the AUC turned out to be 21600 ng·h/mL in data set [2] (human, plasma, oral, vatalanib after everolimus started, day 29, 24-hour dosing interval, mean ± SD) and 26400 ng·h/mL in data set [2] (human, plasma, oral, vatalanib alone, day 14, 24-hour dosing interval, mean ± SD). Further, the half-life in data set [2] (human, plasma, oral, t1/2, vatalanib after everolimus started, day 29, mean ± SD) was 5.7 h; in data set [2] (human, plasma, oral, t1/2, vatalanib alone, day 14, steady state, plasma, mean ± SD) it was 6.3 h. Also, the Tmax in data set [2] (human, plasma, oral, tmax, vatalanib after everolimus started, day 29, median (range)) was 2 h; in data set [2] (human, plasma, oral, tmax, vatalanib alone, day 14, median (range)) it was 2 h; in data set [2] (vatalanib after everolimus started, day 29, median (range)), 2.08 (1.00-4.08) ^a h. The Cssavg in data set [2] (setting [4]) came to 901 ± 403 ng/mL; in data set [2] (setting [5]), 1099 ± 551 ng/mL. The Cssmax is 3963 ± 1861 ng/mL in data set [2] (setting [4]) and 4825 ± 2910 ng/mL in data set [2] (setting [5]). Moreover, the t1/2 in data set [2] (setting [4]) is given as 5.71 ± 3.06 h; in data set [2] (vatalanib alone, day 14, steady state, plasma, mean ± SD), 6.32 ± 4.46 h. The “Daily dose with radiographic evidence of a decrease in tumor blood flow” value in the data set on solid tumors (several clinical trials) is recorded as not below 1000 mg. In the data set on solid tumors (single agent, clinical trials), the Tolerable dosing was not above 2000 mg daily.
With `CO[C@H]1C[C@@H]2CC[C@@H](C)[C@@](O)(O2)C(=O)C(=O)N2CCCC[C@H]2C(=O)O[C@H]([C@H](C)C[C@@H]2CC[C@@H](OCCO)[C@H](OC)C2)CC(=O)[C@H](C)/C=C(\C)[C@@H](O)[C@@H](OC)C(=O)[C@H](C)C[C@H](C)/C=C/C=C/C=C/1C` [Everolimus], the “Maximum tolerated dose (MTD) of everolimus in the combination” value in data set [1] (combined with vatalanib 1000 mg daily) was 5 mg daily. In data set [2] (setting [6]), the CLss/F was determined as 14.3 ± 3.7 L/h, the Cssavg is 15.7 ± 4.9 ng/mL and the Cssmax worked out at 48.5 ± 14.8 ng/mL. The “Time of peak of mean plasma concentration” value in data set [2] (everolimus, cycle 1 day 29, mean concentration-time curve (Fig. 3B)) turned out to be 2 h. Further, in data set [2] (human, plasma, oral), the Vd/F was found to be 216 ± 74 L. Also, the AUC in data set [2] (human, plasma, oral, everolimus with vatalanib, day 29, 24-hour dosing interval, mean ± SD) is 377 ± 117 ng·h/mL. This compound had a half-life in data set [2] (human, plasma, oral, t1/2, everolimus with vatalanib, day 29, mean ± SD) of 14 ± 2.5 h. The Tmax in data set [2] (human, plasma, oral, tmax, everolimus with vatalanib, day 29, median (range)) is 1.31 h. For the same compound, the “Mean change in phospho/total ratio of S6RP” value in data set [3] is “no mean change”.

For orientation: Vd/F means the volume of distribution divided by bioavailability. A word on the AUC: it is the area under the concentration-time curve, a measure of exposure. The term half-life denotes the time needed for the level to fall by half in the phase considered. A higher half-life goes with slow decline.

These data come from article PMC4623321 (Clinical genitourinary cancer, 2013).
